We go through one molecule from US9163044B2, “Carbon monoxide releasing molecules and uses thereof” (Alfama, Inc., priority 2011, dated 2015).

Data set [1] can be described thus: carboxyhemoglobin (COHb) levels in treated mice. It is filed as in vivo, CD-1 female mice. How it is done: FIG. 9 depicts the percentage of carboxyhemoglobin (CO-Hb) measured in CD-1 female mice following Compound 3b administration at 300 mg/kg, intravenously. The CO-Hb was quantified over 80 min by using an oximeter (Avoximeter 4000 from A-vox Instruments). The base line of CO-Hb measured with this instrument is 3-4%.

For data set [2], the system named is liver ischemia-reperfusion model. Description: liver ischemia-reperfusion model. It is filed as in vivo, C57BL/6 mice. The settings on record: 30 mg/kg i.p. 1 h before and 1 h after surgery; ALT 24 h later. How it is done:
Liver ischemia-reperfusion model in C57BL/6 mice. In anesthetized C57BL/6 mice, the hepatic artery and portal vein were clamped for 30 min; 24 h later, serum ALT levels were determined. Compound 3b was dosed i.p. at 30 mg/kg each 1 h before and 1 h after surgery.
FIG. 20 depicts the effect of Compound 3b in the Ischemia-Reperfusion model. In anesthetized C57BL/6 mice, the hepatic artery and portal vein were clamped for 30 min; 24 h later, serum ALT levels were determined. Compound 3b was administered by i.p. injection at 30 mg/kg, 1 hour before and 1 h after surgery.

Data set [3] deals with primary hepatocytes from C57BL/6 mice. Briefly: ex-vivo model of apoptosis (ActD/TNF-α). As to conditions: 2×150 μg/0.5 mL well (2×600 μM), 24 hours. It is filed as cell-based, mouse. How it is done: FIGS. 21A-21B depict the effect of Compound 3b in an ex-vivo model of apoptosis. Apoptosis of primary hepatocytes from C57BL/6 mice was induced with Actinomycin D (ActD; 200 ng/mL) and Tumour Necrosis Factor-α (TNF-α; 10 ng/mL). Compound 3b was added to the cultures 1 hour before and 1 hour after the addition of the apoptosis inducers ActD/TNF-α. Compound 3b was tested at concentrations of 25, 50, 100 and 150 μg/0.5 mL well. Hepatocytes survival was determined 24 hours after the addition of the apoptosis inducers. FIG. 21A: Percentage of increase in survival ActD/TNF-α treated cells in the presence of Compound 3b, relative to cells treated with only the apoptosis inducers. FIG. 21B: Toxicity of the Compound 3b doses on murine hepatocytes (not treated with apoptosis inducers). Data are the mean±S.D. of 3-5 independent experiments (3-5 livers from different mice).

Data set [4] in a line: storage stability of the solid. The data set is classed as physicochemical. The settings on record: brown vials, ambient temperature, under N2. From the text: Following the procedure described by Beck and coworkers (Achatz et al., Anorg. Allg. Chem (2005) 631:2339-2346) saponification of compound (3-a) or (3-c) with NaOH followed by protonation with an acid (e.g., HCl or H2SO4) in aqueous solution led to the formation of tricarbonyl[tris(2-isocyano-2-methyl-propionic acid)]Mo(0) (3-b). Compound (3-b) is stable when stored in brown vials at ambient temperature under N2 for over 6 months or more.

A value given as a limit tells only on which side of the number the result lay.

As to `[C-]#[N+]C(C)(C)C(=O)O.[C-]#[N+]C(C)(C)C(=O)O.[C-]#[N+]C(C)(C)C(=O)O.[C-]#[O+].[C-]#[O+].[C-]#[O+].[Mo]` [Compound 3b, tricarbonyl[tris(2-isocyano-2-methyl-propionic acid)]Mo(0)], in data set [1] (300 mg/kg i.v., over 80 min, base line 3-4%), the COHb in blood is on record as not above 7.5%. Moreover, the “symptomatic levels of COHb in blood” value in data set [1] (therapeutic doses, mice) is “did not cause symptomatic levels of COHb”. Moreover, the “serum ALT” value in data set [2] is listed as 29 U/L. Besides, the “increase in survival of ActD/TNF-α treated hepatocytes relative to inducers only” value in data set [3] is recorded as “more than 125%”. The stable when stored result in data set [4] is “over 6 months”.
